Experimental data published in patent US6670355B2, “Method of treating cardiovascular disease” (Wyeth, priority 2000, dated 2003).
Values joined by “and” are separate entries in the source; they are usually repeats but may differ in a detail not shown here. Equal entries are not always repeated.

System: ApoE knockout (EKO) mice
Test: standard pharmacological test procedure for atherosclerosis in ApoE knockout (EKO) mice: plasma lipids and aortic arch lesions
Type: in vivo
Details: for Aortic Atherosclerosis (% lesion involvement as assessed by lpipd staining): aortic arch, Oil Red O; for Aortic Atherosclerosis (% lesion involvement as assessed by lpipd staining) / HDL-C / LDL-C / Total Cholesterol / Triglycerides / VLDL-C: Western Diet, mean ± S.E.; for HDL-C / LDL-C / Total Cholesterol / Triglycerides / VLDL-C: plasma
Description: The ability of the rapamycins of this invention to treat or inhibit cardiovascular disease or peripheral vascular disease was confirmed in a standard pharmacological test procedure using ApoE knockout (EKO) mice, which are a well accepted animal model of human atherosclerosis. In this test procedure, rapamycin was used a representative example of a rapamycin of this invention. The procedure used, and results obtained are briefly summarized below.
Male EKO mice, 4-6 weeks of age, were housed in shoe-box cages and were allowed ad lib food and water. The animals were randomized by weight into 5 groups (N=12-15 mice per group) and were fed Purina Rodent Chow for the first week of the study. Also during this period as well as the remaining 12 weeks of the study, the animals were dosed every 2 days with 0, 1, 2, 4 or 8 mg/kg rapamycin s.c. using 2% Tween-80, 1% carboxymethyl cellulose as the vehicle and Control. The animal diet was switched to a casein-based Western Diet for week 2 to week 13 of the study. At the end of the study period, the animals were euthanized, plasma samples obtained, and the hearts perfused first with saline, then with 10% formalin. Total cholesterol and triglycerides were determined using enzymatic methods with commercially-available kits from Boehringer Mannheim and Wako Biochemicals, respectively, and the Boehringer Mannheim Hitachii 911 Analyzer (Boehringer Mannheim Diagnostic Laboratory Systems, Indianapolis, Ind.). Separation and quantification of plasma lipoproteins were performed using FPLC size fractionation. Briefly, […] of serum was filtered and injected into two Superose 6 columns (Amersham Pharmacia Biotech, UK, Ltd) connected in series and eluted at a constant flow rate with 1 mM sodium EDTA and 0.15 M NaCl. Areas of each curve representing VLDL, LDL and HDL were integrated using Millennium software (Waters Technologies Corporation), and each lipoprotein fraction was quantified by multiplying the Total Cholesterol value by the relative percent area of each respective peak. The aortas were carefully isolated and remained in the formalin fixative for 48-72 hours before handling. Atherosclerotic lesions were identified by Oil Red O staining, a well accepted procedure for identifying accumulation of neutral lipids such as cholesterols and triglycerides. The vessels were destained, and then imaged using a Nikon SMU800 microscope fitted with a Sony 3CCD video camera system in concert with IMAQ Configuration Utility (National Instrument) as the image capturing software. The lesions were quantified along the aortic arch using a custom threshold utility software package designed by Robert Coll (Coleman Technologies). Automated lesion assessment was performed on the vessels using the threshold function of the program, specifically on the region contained within the aortic arch from the proximal edge of the Right Common Carotid artery to the distal edge of the Left Subclavian artery. Aortic atherosclerosis data were expressed as percent lesion (lipid) involvement strictly within this defined luminal area. Statistical significance between the Control and treated groups was determined using the Dunnett's Test at 1% significance level (p<0.01).

Compound: CO[C@H]1C[C@@H]2CC[C@@H](C)[C@@](O)(O2)C(=O)C(=O)N2CCCC[C@H]2C(=O)O[C@H]([C@H](C)C[C@@H]2CC[C@@H](O)[C@H](OC)C2)CC(=O)[C@H](C)/C=C(\C)[C@@H](O)[C@@H](OC)C(=O)[C@H](C)C[C@H](C)/C=C/C=C/C=C/1C [rapamycin]
- area of aorta containing fat (1, 2, 4, or 8-mg/kg qod for 12 weeks): 12-16%
- Aortic Atherosclerosis (% lesion involvement as assessed by lpipd staining) (1 mg/kg s.c. every 2 days, 1 mg/kg): 21.6% and 21.6 ± 3.1 %
- Aortic Atherosclerosis (% lesion involvement as assessed by lpipd staining) (2 mg/kg s.c. every 2 days, 2 mg/kg): 14.9 ± 3.1 %
- Aortic Atherosclerosis (% lesion involvement as assessed by lpipd staining) (4 mg/kg s.c. every 2 days, 4 mg/kg): 16% and 16.4 ± 2.8 %
- Aortic Atherosclerosis (% lesion involvement as assessed by lpipd staining) (8 mg/kg s.c. every 2 days, 8 mg/kg): 12% and 12.03 ± 2.3 %
- effect on VLDL-cholesterol (compared with control EKO mice): not significantly affecting
- effect on circulating plasma HDL-cholesterol (compared with control EKO mice): significantly (p<0.01) increased
- effect on circulating plasma LDL-cholesterol (compared with control EKO mice): significantly (p<0.01) increased
- effect on total cholesterol (compared with control EKO mice): not significantly affecting
- effect on triglycerides (compared with control EKO mice): not significantly affecting
- HDL-C (1 mg/kg s.c. every 2 days): 23 ± 6 mg/dL
- LDL-C (1 mg/kg s.c. every 2 days): 508 ± 18 mg/dL
- Total Cholesterol (1 mg/kg s.c. every 2 days): 1434 ± 35 mg/dL
- Triglycerides (1 mg/kg s.c. every 2 days): 132 ± 16 mg/dL
- VLDL-C (1 mg/kg s.c. every 2 days): 903 ± 34 mg/dL
- HDL-C (2 mg/kg s.c. every 2 days): 31 ± 5 mg/dL
- LDL-C (2 mg/kg s.c. every 2 days): 517 ± 18 mg/dL
- Total Cholesterol (2 mg/kg s.c. every 2 days): 1311 ± 80 mg/dL
- Triglycerides (2 mg/kg s.c. every 2 days): 143 ± 20 mg/dL
- VLDL-C (2 mg/kg s.c. every 2 days): 763 ± 64 mg/dL
- HDL-C (4 mg/kg s.c. every 2 days): 38 ± 5 mg/dL
- LDL-C (4 mg/kg s.c. every 2 days): 494 ± 10 mg/dL
- Total Cholesterol (4 mg/kg s.c. every 2 days): 1281 ± 58 mg/dL
- Triglycerides (4 mg/kg s.c. every 2 days): 136 ± 12 mg/dL
- VLDL-C (4 mg/kg s.c. every 2 days): 749 ± 58 mg/dL
- HDL-C (8 mg/kg s.c. every 2 days): 49 ± 3 mg/dL
- LDL-C (8 mg/kg s.c. every 2 days): 475 ± 21 mg/dL
- Total Cholesterol (8 mg/kg s.c. every 2 days): 1167 ± 75 mg/dL
- Triglycerides (8 mg/kg s.c. every 2 days): 134 ± 9 mg/dL
- VLDL-C (8 mg/kg s.c. every 2 days): 644 ± 58 mg/dL
- circulating total cholesterol (rapamycin treated animals, 1, 2, 4, or 8-mg/kg qod for 12 weeks): 1300 to 1500 mg/dL
- reduction in aortic atherosclerosis (rapamycin treated vs Control EKO mice): three-fold reduction
